Measurements taken from article PMC13429874, “ABHD2 activity is not required for the non-genomic action of progesterone on human sperm” (Human Reproduction (Oxford, England), 2026).
“Also recorded” adds a separate entry of the source. Read-outs that look alike come from different tables or passages of the source. Blank lines part the entries; values can stand above or below the compound they belong to.

Assays:
[1] = test system: CatSper; conditions: cited from earlier work
[2] = target: T1, ABHD2^L33–E425 (Homo sapiens, UniProt P08910); test: ABHD2^L33-E425 fluorometric enzymatic activity assay with 7-HCA substrate; type: biochemical; conditions: for IC50: 10 nM enzyme, 10 µM 7-HCA, read-out: IC50 for ABHD2^L33-425, fluorometric assay using 7-HCA
T1 construct: expression for ABHD2 amino acids L33–E425, in which a predicted transmembrane domain (amino acids 1–32) is removed; His6-FLAG (N); made in house; host or cells: E. coli BL21(DE3)-R3-pRARE2
T1 sequence (P08910 33-425): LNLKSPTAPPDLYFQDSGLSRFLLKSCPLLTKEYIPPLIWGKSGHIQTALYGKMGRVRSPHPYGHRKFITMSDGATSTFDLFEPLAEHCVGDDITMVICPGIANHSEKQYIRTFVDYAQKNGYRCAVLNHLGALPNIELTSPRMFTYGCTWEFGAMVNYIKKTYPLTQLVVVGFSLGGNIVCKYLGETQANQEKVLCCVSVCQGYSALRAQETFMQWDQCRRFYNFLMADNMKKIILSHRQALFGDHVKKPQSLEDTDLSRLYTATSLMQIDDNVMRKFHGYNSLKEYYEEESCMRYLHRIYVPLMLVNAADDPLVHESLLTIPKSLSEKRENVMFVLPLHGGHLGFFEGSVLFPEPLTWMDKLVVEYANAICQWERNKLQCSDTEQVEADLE

[3] = target: T1, ABHD2^L33–E425; test: Differential scanning fluorimetry (DSF) with purified ABHD2^L33–E425; type: binding; conditions: for effect on heat-induced denaturation of ABHD2^L33–E425 (DSF binding): 40 µM steroid; for ΔTm shift for ABHD2^L33-425 determined by DSF: purified protein
[4] = target: T2, full-length human ABHD2 (ABHD2^FL) (Homo sapiens, UniProt P08910); test: ABHD2^FL enzymatic activity assay with 7-HCA substrate; type: biochemical; conditions: for IC50: Supplementary Table S2, read-out: IC50 measured in ABHD2^FL in the 7-HCA Assay
T2 construct: TEV site-eGFP-8xHis (C, cleaved yes); made in house; host or cells: SF9 insect cells (baculovirus)
T2 sequence (P08910 1-425): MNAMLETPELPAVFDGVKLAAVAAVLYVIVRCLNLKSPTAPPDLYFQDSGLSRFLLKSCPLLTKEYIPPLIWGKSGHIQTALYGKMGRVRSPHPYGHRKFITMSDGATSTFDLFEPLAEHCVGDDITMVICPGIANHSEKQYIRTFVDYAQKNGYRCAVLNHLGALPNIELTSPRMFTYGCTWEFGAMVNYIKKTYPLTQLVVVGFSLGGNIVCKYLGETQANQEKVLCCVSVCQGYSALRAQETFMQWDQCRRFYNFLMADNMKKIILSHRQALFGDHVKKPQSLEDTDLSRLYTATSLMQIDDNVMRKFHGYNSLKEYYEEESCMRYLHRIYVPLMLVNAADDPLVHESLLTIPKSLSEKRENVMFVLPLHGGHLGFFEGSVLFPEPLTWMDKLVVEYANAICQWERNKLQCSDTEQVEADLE

[5] = test system: human sperm; test: Sperm hyperactivation assay (CASA); type: cell-based; conditions: 10 µM compound, 30 min
Experimental: Sperm hyperactivation was assessed in human sperm purified by density gradient centrifugation. Semen samples (n = 7) were allowed to liquefy for 15–30 min at 37°C, and up to 2 ml of liquified semen was layered onto a two-step GM501 gradient system (45%/90%; Gynemed; Sierksdorf, Germany) pre-equilibrated at 37°C. Gradients were centrifuged for 20 min at 400 × g (no break). The 90% pellet was collected, washed in SpermActive medium (Gynemed; composition per manufacturer: NaCl, KCl, MgSO4.7H2O, KH2PO4, 1.77 mM CaCl2.2H2O, D(+)-glucose anhydrous, sodium pyruvate, sodium lactate, EDTA, alanyl-glutamine, essential and non-essential amino acids, 25.71 mM NaHCO3, 15 mM HEPES, 5 g/l human serum albumin, 10 mg/l gentamicin, and phenol red), and incubated for at least 2 h at 37°C, 5% CO2.
For compound testing, sperm suspensions with 7.5 × 10^6 sperm/ml in SpermActive were treated with either DMSO (vehicle) or 10 µM test compound. For basal and induced hyperactivation conditions, DMSO or progesterone (3 µM), respectively, was added. Samples were incubated for 30 min at 37°C, 5% CO2, before motility analysis.
Motility was analyzed using a CASA system (CEROSII^TM Animal Motility, software version 1.16; Hamilton Thorne, Beverly, MA, USA), mounted on an Axiolab 5 microscope (Zeiss, Germany), equipped with a TPi-SX Thermal Plate (Tokai Hit; Shizuoka-ken, Japan) and a JAI CM-040-GE CCD camera (JAI; Tokyo, Japan). Leja slides (20 µm chamber depth; Leja Products B.V., Nieuw-Vennep, The Netherlands) were pre-warmed to 37°C, cleaned with lens paper, and loaded by capillary action with 6 µl sperm suspension; capillary correction was set to 1.3. Sperm tracks were recorded at 37°C using a 10× negative-phase objective, acquiring 60 frames at 60 Hz with 4 ms exposure and gain set to 600. For each sample and condition, 300–500 motile sperm from at least 10 non-overlapping fields were analyzed. Hyperactive sperm were identified using the SORT function with the following Boolean argument: VCL > 150 µm/s and LIN < 50% and ALH > 7 µm. For each sample and condition, the percentage of hyperactive sperm was normalized to the percentage of motile sperm, and the mean of two technical duplicates was reported.
Statistical analysis was performed using GraphPad Prism 10 for Windows (version 10.6.1). Data normality was assessed using Shapiro–Wilk test. Differences between basal and induced hyperactivation were evaluated using a paired t-test, with effective pairing confirmed across all comparisons. P < 0.05 was considered statistically significant.

[6] = test system: human sperm; test: Sperm intracellular Ca2+ measurements (Fluo-4); type: cell-based
Experimental: Measurements of the changes in sperm intracellular Ca^2+ concentration ([Ca^2+]i) were performed on motile human sperm purified by swim-up. Semen samples were allowed to liquefy for 15–60 min at 37°C, and 0.5–1 ml liquified semen was layered beneath 4 ml human tubal fluid medium (HTF; 97.8 mM NaCl, 4.69 mM KCl, 0.2 mM MgSO4, 0.37 mM KH2PO4, 2.04 mM CaCl2, 2.78 mM glucose, 0.33 mM sodium pyruvate, 21.4 mM lactic acid, 4 mM NaHCO3, and 21 mM HEPES pH 7.35 adjusted with NaOH) in 50 ml conical tubes. Motile sperm were allowed to swim up into the HTF for 60–90 min at 37°C, collected, washed twice (700 × g, 20 min, 37°C), and resuspended in HTF containing 3 mg/ml HSA at a density of 1 × 10^7 sperm/ml. Changes of [Ca^2+]i in motile human sperm were measured as previously described ([Rennhack et al., 2018]), using a fluorescence plate-reader assay (FLUOstar Omega, BMG LABTECH) with 384-well plates. Swim-up-purified sperm were loaded with Fluo4-AM (5 μM, Thermo Fisher Scientific, Waltham, MA, USA) and Pluronic F-127 (0.05% w/v) for 20 min at 37°C. Excess dye was removed by centrifugation at 700 × g for 5 min, supernatant removal, and resuspension to 5 × 10^6 sperm/ml in HTF.
For recordings, wells of a 384-well plate were filled with 50 μl of the dye-loaded sperm suspension. Fluorescence was excited at 480 nm, and emission was recorded at 520 nm using a plate reader (Fluostar Omega, BMG Labtech). After establishing a baseline for at least 60 s, 25 µl test compound solutions were added and the fluorescence response recorded. After 4 min, 7.5 µl progesterone was added to reach a final concentration of 3 µM, and ensuing changes in fluorescence were recorded. For the analysis of compound-evoked Ca^2+ signal, basal fluorescence (F0) was determined prior to compound addition. For the determination of inhibitory effects of compounds on progesterone-evoked Ca^2+ signals, basal fluorescence (F0) was determined before progesterone addition. The CatSper inhibitor TS150 ([Schierling et al., 2023]) was used as a control. Each compound was tested in technical duplicates across ≥3 biological replicates, using sperm from at least two donors, and performed on at least two separate days.
Data analysis and graphical representation were performed with GraphPad Prism software version 10.6.1 (San Diego, CA, USA). Changes in Fluo-4 fluorescence are depicted as ΔF/F0 (%), i.e. the change in fluorescence (ΔF) relative to the mean basal fluorescence (F0) before application of buffer or compounds/ligands, to correct for intra- and inter-experimental variations in basal fluorescence among individual wells or to correct for compound-evoked changes in fluorescence. Signal amplitudes evoked in the presence of compounds were normalized to the maximal signal amplitude evoked by 3 µM progesterone in the absence of the compound (set to 1) to ease comparisons between experiments.

[7] = 5 µM steroid or triterpenoid, 300 nM 7-HCA

- effect on enzymatic activity of purified ABHD2^L33–E425 [2, 7]: weak inhibitory action
- effect on heat-induced denaturation of ABHD2^L33–E425 (DSF binding) ([3]; 30 min pre-incubation): did not affect
Compound: C=C(C)[C@@H]1CC[C@]2(C)CC[C@]3(C)[C@H](CC[C@@H]4[C@@]5(C)CC[C@H](O)C(C)(C)[C@@H]5CC[C@]43C)[C@@H]12 [lupeol]
- progesterone-induced CatSper activation ([1]; ref Brenker et al., 2018, Rehfeld, 2020, Rehfeld and Marcus Pedersen, 2022): do not interfere
- progesterone-induced Ca2+ influx and hyperactivation ([1]; ref Mannowetz et al., 2017): inhibitors

- IC50 [4]: 4200 nM
- IC50 [2]: 940 nM
- effect on melting temperature / thermal stability of ABHD2^L33-E425 (DSF), in words ([3]; 10 µM compound, 30 min pre-incubation): increased melting temperature
- ΔTm shift for ABHD2^L33-425 determined by DSF [3]: 3.3 °C
Compound: Cc1ccc(C2CCCCN2C(=O)N2CCCCC2)cc1 (stereo not drawn) [Compound 5]

Second part, the compound before the results:

Compound: COC(=O)[C@]1(C)CC[C@]2(C)CC[C@]3(C)C4=CC=C5C(=CC(=O)C(O)=C5C)[C@]4(C)CC[C@@]3(C)[C@@H]2C1 [pristimerin]
- effect on enzymatic activity of purified ABHD2^FL [4]: did not affect
- progesterone-induced Ca2+ influx and hyperactivation [1]: inhibitors
- progesterone-induced CatSper activation [1]: do not interfere
- effect on enzymatic activity of purified ABHD2^L33–E425 [2]: did not affect

Compound: O=C(N1CCCCC1)N1CCCC[C@@H]1c1ccccc1 [(R)-2]
- effect on progesterone-induced hyperactivation ([5]; 3 µM progesterone): not affected
- effect on basal hyperactivation [5]: No statistically significant differences; also recorded: did not affect
- compound-evoked changes in [Ca2+]i ([6]; 10 µM compound): only minuscule changes
- effect on progesterone-induced Ca2+ signal (amplitude and waveform) ([6]; compounds 10 µM, TS150 60 µM, progesterone 3 µM): similar
- IC50 [4]: 240 nM
- IC50 [2]: 220 nM
- ΔTm shift for ABHD2^L33-425 determined by DSF [3]: 8.4 °C

Compound: C[C@]12CC[C@@H]3c4ccc(O)cc4CC[C@H]3[C@@H]1CC[C@@H]2O [17β-estradiol]
- effect on enzymatic activity of purified ABHD2^FL ([4]; 7-HCA and RB substrates (Suppl. Fig. S4A,B), weak effects at ≥5 µM): did not alter
- effect on enzymatic activity of purified ABHD2^L33–E425 [2, 7]: did not alter

Compound: pregnenolone sulfate
- effect on enzymatic activity of purified ABHD2^FL [4]: weak inhibitory action
- effect on enzymatic activity of purified ABHD2^L33–E425 [2]: but not on ABHD2^L33–E425
- effect on heat-induced denaturation of ABHD2^L33–E425 (DSF binding) ([3]; 30 min pre-incubation): did not affect

Compound: CCCCC/C=C\C/C=C\C/C=C\C/C=C\CCCC(=O)Oc1ccc2ccc(=O)oc2c1 [Compound 7-HCA, 7-hydroxycoumarinyl arachidonate]
- Km ([4]; read-out: Km of substrate hydrolysis by ABHD2^FL): 59 µM
- kcat of substrate hydrolysis by ABHD2^L33–E425 [2]: 2.8 pmol substrate/min/pmol enzyme
- Km ([2]; read-out: Km of substrate hydrolysis by ABHD2^L33–E425): 0.28 µM
